Source: patent US20240018129A1, “COMPOUNDS AS PU. 1 INHIBITORS” (PEKING UNIVERSITY, priority 2020, published 2024)

Legend:
PU.1 = target: T1, PU.1 (Mus musculus, UniProt P17433); experiment: q-PCR of TIM-3 expression in Blast-PU.1 cells (PU.1 inhibition potency); assay type: cell-based
T1 construct: EGFP (from 'PU.1-EGFP-vector'); expressed in transfected cells
Description: An acute T cell lymphoblastic leukemia (T-ALL) disease model was used to evaluate the effect of the newly synthesized compounds on PU.1 inhibition. Pten, a famous tumor suppressor gene, was […] deleted in mouse hematopoietic stem cells and their differentiated progeny, and this would eventually lead to a progressive T-ALL in about two months from born. It is believed that immune checkpoint T cell immunoglobulin mucin-3 (TIM-3), a surface marker for the isolation of pure leukemia-initiating cells (LICs), is transcriptionally regulated by transcription factor PU.1 in the Pten-null T-ALL model. Therefore, the expression level of TIM-3 was detected and quantified to characterize the inhibition potency of the compounds after 24 h treatment of graded concentrations of compounds. Blast cells were transfected with either PU.1-EGFP-vector or EGFP-vector to yield stable cell lines blast-PU.1 and blast-EGFP, respectively. These cell lines were used for compound testing in vitro. Compounds DB1976 and DB2115 were tested as well for comparison. Blast-PU.1 and blast-EGFP are the ideal cell lines for compounds testing in vitro, since they are T-ALL blast cells with […] TIM-3 and PU.1 expression level.

[1] = system: bleomycin-induced skin fibrosis; experiment: bleomycin-induced skin fibrosis, preventive and therapeutic models; assay type: in vivo, mouse
Method: Methods: To evaluate the preventive and therapeutic effects of compound I-1 on skin fibrosis, bleomycin was used to establish two animal models of skin fibrosis with different drug intervention (6-8 weeks, C57BL/6, male). Skin fibrosis was induced by local injection of bleomycin (0.5 mg/mL, 0.1 ml/mouse) in a skin defined area (˜1 cm^2), where the hair was removed in advance, at the upper back every other day. Subcutaneous saline injections served as controls. (I) Preventive model of bleomycin-induced skin fibrosis: Compound I-1, positive control DB1976, or vehicle (saline) were injected i.p. simultaneously with bleomycin for 4 weeks (FIG. 3a). (II) Therapeutic model of bleomycin-induced skin fibrosis: Mice were pre-charged with bleomycin for 3 weeks to induce skin fibrosis, then treated with compound I-1, positive control DB1976, or vehicle (saline) for another 3 weeks, total time is 6 weeks after the first bleomycin treatment (FIG. 30. After the last day of treatment of both models, mice were fasted overnight and euthanized. Part of the skin was fixed with paraformaldehyde after fully flat on a foil, embedded with paraffin, and then sliced for H&E, Sirius red and Masson staining to check pathological features. The epidermal thickness of each sample was calculated quantitatively with image J. Another part of skin was collected and stored at −80° C. after liquid nitrogen quick-freezing, RNA isolation (Code.R6934, OMEGA, USA), first cDNA reverse (Code.AT341, TransGen, China), SYBR mix (Code.AQ601, TransGen, China) for Q-PCR (LightCycler® 96, Roche) to verify several fibrosis-related genes mRNA level, such as, Col1a1 and Col1a2.

NASH diet-induced NASH = NASH diet-induced NASH model; assay type: in vivo, mouse
Description: (§1) Methods: To evaluate the potential therapeutic effects of compound I-1 on liver disorders, including liver fat steatosis and accumulation, nonalcoholic fatty liver disease (NAFLD), nonalcoholic steatosis hepatitis (NASH), and liver fibrosis, three mice models (C57BL/6, male, 8 weeks old) were used. (I) NASH diet (Code.TD.160785, ENVIGO, USA)-induced NASH model: All mice were fed with NASH diet for 10 weeks. Mice were then randomly distributed into three groups, and each group was assigned to be injected daily with vehicle, compound I-1 (2.5mpk or 5mpk, i.p.), or DB1976 (2.5mpk, i.p, as a positive control) for another 6 weeks on continuous NASH diet. A group with normal regular diet was treated with vehicle as health control. (II) High-fat diet (HFD) combinate with CCl4 (lower dose)—induced NASH model. Mice were fed with normal regular diet or HFD (kcal fat 60%—D12492, research diets) for 10 weeks, then the HFD mice were divided into two groups randomly based on the rule of minimum weight differences. Each group was assigned to be injected with CCl4 (25% v/v in olive oil, 0.5 mL/kg body weight) or pure olive oil (i.p.) twice a week for 4 weeks. Compound 1-1 or vehicle (saline) were injected (i.p.) once daily for 4 weeks at the same time with CCl4 under continuous HFD. (III) CCl4 (higher dose)—induced liver fibrosis model. Liver fibrosis was induced by CCl4 injection (20% v/v in olive oil, 10 mL/kg body weight) twice a week for 6 weeks, compound I-1 or vehicle are also injected (i.p.) once daily for 6 weeks at the same time with CCl4 application. Ail the mice in the above-mentioned three models were observed daily. After the last day of treatment of all the models, mice were fasted overnight and euthanized. Serum was collected after centrifuging of the whole blood at 4 degrees, and blood biochemistry parameters were tested through automatic biochemical instrument (BS-240VET, Mindray). Part of liver tissues were fixed with paraformaldehyde, embedded with paraffin, and then sliced for H&E or Sirius red staining to check pathological features, and NAFLD scores. Kleiner, D. E. et al. Hepatology 41, 1313-1321, doi:10.1002/hep.20701 (2005). Part of liver tissues were used fresh, embedded in optimum cutting temperature compound, and sectioned. The sections were stained with 0.5% oil red 0 according to standard procedures after fixed in 4% paraformaldehyde in PBS. Another part of liver tissues were collected and stored in −80° C. after liquid nitrogen quick-freezing, RNA. isolation (Code.R6934, OMEGA., USA), first cDNA reverse (Code.AT341, TransGen, China), SYBR mix (Code.AQ601, TransGen, China) for Q-PCR (LightCycler®96, Roche) to verify genes mRNA level, such as, fibrosis-related genes, Col1a1 and Col1a2; inflammation-related genes, IL-6 and IL-1β.

[2] = system: HFD/CCL4-induced NASH and liver fibrosis; experiment: High-fat diet (HFD) combined with CCl4 (lower dose)-induced NASH model; assay type: in vivo, mouse
Description: as §1

[3] = system: T-ALL blast cells and TIM-3-high LICs; experiment: Pten-null T-ALL mouse model, compound I-1 and/or rapamycin treatment
Method: To generate a Pten-null T-ALL mouse model, Pten was 40% deleted in mouse fetal liver hematopoietic stem cells (HSCs), followed by PI3K-AKT pathway activation, hematopoietic disorder and T-ALL development. In the T-ALL crisis stage, T-ALL blasts and LICs would infiltrate mouse hematopoietic organs and non-hematopoietic organs.
After treatment, hematopoietic and non-hematopoietic organ morphology of the mice was analyzed using hematoxylin-eosin (H&E) staining.

[4] = preventive model, 5mpk i.p., 4 weeks

Which results are given for N=C(N)c1ccc2nc(-c3ccc(NC(=O)[C@@H]4CCCN4C(=O)[C@@H]4CCCN4C(=O)c4ccc(-c5nc6ccc(C(=N)N)cc6[nH]5)cc4)cc3)[nH]c2c1 [Compound I-1, (S)-1-((4-(6-carbamimidoyl-1H-benzo[d]imidazol-2-yl)benzoyl)-L-prolyl)-N-(4-(6-carbamimidoyl-1H-benzo[d]imidazol-2-yl)phenyl)pyrrolidine-2-carboxamide]?
downregulated the expression level of TIM-3 (PU.1; 10 nM, 24 h treatment, Blast-PU.1 cell line, q-PCR): 40%; activity in terms of PU.1-mediated TIM-3 inhibition, compared among tested compounds (PU.1; Blast-PU.1 cells): best activity; skin fibrosis progress ([1]; preventive model, 5mpk i.p. simultaneously with bleomycin for 4 weeks, vs bleomycin/vehicle): significantly prevented; collagen deposition [1, 4]: reducing; epidermal thickness [1, 4]: reducing; mRNA level of Col1a1 and Col1a2 ([1]; preventive model, 5mpk i.p., 4 weeks, skin): decreasing; bleomycin-induced skin fibrosis ([1]; therapeutic model, 3 weeks bleomycin then 3 weeks treatment, 5mpk): significantly alleviated and reversed; efficacy when comparing with DB1976 (2.5mpk) (NASH diet-induced NASH; 2.5mpk i.p. daily for 6 weeks): lower efficacy; fat accumulation in liver (NASH diet-induced NASH; 2.5mpk i.p. daily for 6 weeks): decreased; metabolic disturbance by NASH diet (body weight, liver fat, ALT, LDL-C, TC, IL-6, IL-1β, Col1a1, Col1a2) (NASH diet-induced NASH; 2.5mpk i.p. daily for 6 weeks): tendency to alleviate; mRNA levels of IL-6, IL-1β and Col1a1, Col1a2 (NASH diet-induced NASH; 2.5mpk i.p. daily for 6 weeks, liver): lower; metabolic disturbance by NASH diet (body weight, liver fat, ALT, LDL-C, TC, IL-6, IL-1β, Col1a1, Col1a2) (NASH diet-induced NASH; 5mpk i.p. daily for 6 weeks): potently alleviated; level of serum ALT ([2]; fasting serum): tendency to reduce; serum triglyceride (TG) and total-cholesterol (TC) ([2]; fasting serum, i.p. once daily for 4 weeks): reduced; body weight, gWAT and iWAT weight radio increased by HFD/CCL4 ([2]; i.p. once daily for 4 weeks with CCl4 under HFD): reversed; reducing fat accumulation (H&E staining, liver steatosis score) ([2]; liver): not efficacious; reducing inflammatory response (inflammatory infiltrates, inflammation score, liver mRNA of IL-1β and IL-6) ([2]; liver): efficacious; collagen deposition (sirius red staining) and liver mRNA level of Col1a1 and Col1a2 ([2]; mouse, in vivo): reduced; hepatotoxicity under its effective concentration ([2]; mouse, in vivo): not hepatotoxic; liver fibrosis induced by HFD/CCL4 application ([2]; mouse, in vivo): significantly alleviated; TIM-3 high LICs proportion ([3]; after two days' treatment, bone marrow, without treatment 33.5%): 6.15%; reduction of proportion of blasts (in words) ([3]; after two days' treatment, bone marrow, spleen and thymus): did not reduce; organ morphology (H&E staining) compared with T-ALL group ([3]; treated at blast crisis stage for one month, thymus and spleen): no significant changes
